Legend:
morningglory = assay: Test B pre/postemergence morningglory; format: in vivo, Ipomoea hederacea
How it was run: (§1)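 Test chemicals in a non-phytotoxic solvent mixture with surfactant were sprayed preemergence onto planted seeds and postemergence onto plants 2 to 18 cm tall (1- to 4-leaf stage). After twelve to sixteen days in a greenhouse, injury was visually rated against untreated controls from 0 (no effect) to 10 (complete control).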

wild oat = assay: Test B pre/postemergence wild oat; format: in vivo, Avena fatua
How it was run: as §1

velvetleaf = assay: Test B pre/postemergence velvetleaf; format: in vivo, Abutilon theophrasti
How it was run: as §1

giant foxtail = assay: Test B pre/postemergence giant foxtail; format: in vivo, Setaria faberii
How it was run: as §1

rape = assay: Test B pre/postemergence rape; format: in vivo, Brassica napus
How it was run: as §1

crabgrass = assay: Test B pre/postemergence crabgrass; format: in vivo, Digitaria sanguinalis
How it was run: as §1

cocklebur = assay: Test B pre/postemergence cocklebur; format: in vivo, Xanthium strumarium
How it was run: as §1

surinam grass = assay: Test B pre/postemergence surinam grass; format: in vivo, Brachiaria decumbens
How it was run: as §1

purple nutsedge = assay: Test B pre/postemergence purple nutsedge; format: in vivo, Cyperus rotundus; details: Postemergence
How it was run: as §1

blackgrass = assay: Test B pre/postemergence blackgrass; format: in vivo, Alopecurus myosuroides
How it was run: as §1

corn = assay: Test B pre/postemergence corn; format: in vivo, Zea mays
How it was run: as §1

duck salad = assay: Test B flood test duck salad; format: in vivo, Heteranthera limosa
How it was run: (§2)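 Read-out is a visual response score from 0 (no effect) to 10 (complete control), assigned by comparison with untreated controls. Treatment was applied at the 2-leaf stage, and plants stayed in the greenhouse for twelve to sixteen days before scoring.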

soybean = assay: Test B pre/postemergence soybean; format: in vivo, Glycine max
How it was run: as §1

pigweed = assay: Test B pre/postemergence pigweed; format: in vivo, Amaranthus retroflexus
How it was run: as §1

sugar beet = assay: Test B pre/postemergence sugar beet; format: in vivo, Beta vulgaris
How it was run: as §1

bamyardgrass = assay: Test B flood test barnyardgrass; format: in vivo, Echinochloa crus-galli
How it was run: as §2

rice = assay: Test B flood test rice; format: in vivo, Oryza sativa
How it was run: as §2

bedstraw = assay: Test B pre/postemergence bedstraw; format: in vivo, Galium aparine
How it was run: as §1

wheat = assay: Test B pre/postemergence wheat; format: in vivo, Triticum aestivum
How it was run: as §1

smallflower flatsedge = assay: Test B flood test smallflower flatsedge; format: in vivo, Cyperus difformis
How it was run: as §2

[1] = Preemergence, Rate 62 g/ha, scale of 0 to 10 where 0 is no effect and 10 is complete control
[2] = Preemergence, Rate 250 g/ha, scale of 0 to 10 where 0 is no effect and 10 is complete control
[3] = Preemergence, Rate 500 g/ha, scale of 0 to 10 where 0 is no effect and 10 is complete control
[4] = Rate 125 g/ha, Preemergence, scale of 0 to 10 where 0 is no effect and 10 is complete control
[5] = Rate 500 g/ha, Postemergence, scale 0 to 10, 0 no effect, 10 complete control
[6] = Rate 62 g/ha, Postemergence, scale of 0 to 10 where 0 is no effect and 10 is complete control
[7] = Rate 125 g/ha, Postemergence, scale 0 to 10
[8] = Rate 62 g/ha, headed Pre-emergence (flood test species), scale 0 to 10 (0 no effect, 10 complete control)
[9] = Rate 125 g/ha, Pre-emergence, flood test species, scale 0 to 10 where 0 is no effect and 10 is complete control
[10] = Rate 250 g/ha, Pre-emergence, flood-test species, scale 0 to 10, 0 is no effect, 10 is complete control
[11] = Rate 500 g/ha, Pre-emergence, flood test species, scale 0 to 10 (0 no effect, 10 complete control)

COCCOCn1c(=O)on(C(=O)N(c2ccc(F)cc2)C(C)C)c1=O [Compound 258]
Morningglory plant response rating (morningglory; [1]): 0 | Morningglory plant response rating (morningglory; [2]): 0 | Plant response rating, Morningglory (morningglory; [3]): 0 | Morningglory plant response rating (morningglory; [4]): 0 | Plant response rating (0 to 10; 0 is no effect, 10 is complete control), Morningglory (morningglory; Rate 250 g/ha, Postemergence): 7 | Morningglory plant response rating (morningglory; [5]): 10 | Wild oats plant response rating (wild oat; [1]): 2 | Wild oats plant response rating (wild oat; [2]): 5 | Plant response rating, Wild oats (wild oat; [3]): 6 | Wild oats plant response rating (wild oat; [4]): 4 | Wild oats plant response rating (wild oat; [5]): 3 | Velvetleaf plant response rating (velvetleaf; [1]): 2 | Velvetleaf plant response rating (velvetleaf; [2]): 5 | Plant response rating, Velvetleaf (velvetleaf; [3]): 7 | Velvetleaf plant response rating (velvetleaf; [4]): 5 | Velvetleaf plant response rating (velvetleaf; [5]): 0 | Giant foxtail plant response rating (giant foxtail; [1]): 8 | Giant foxtail plant response rating (giant foxtail; [2]): 10 | Plant response rating, Giant foxtail (giant foxtail; [3]): 10 | Giant foxtail plant response rating (giant foxtail; [4]): 9 | Plant response rating (0 to 10; 0 is no effect, 10 is complete control), Giant foxtail (giant foxtail; Rate 250 g/ha, Postemergence): 4 | Giant foxtail plant response rating (giant foxtail; [5]): 7 | Rape plant response rating (rape; [1]): 0 | Rape plant response rating (rape; [2]): 5 | Plant response rating, Rape (rape; [3]): 7 | Rape plant response rating (rape; [4]): 1 | Plant response rating (0 to 10; 0 is no effect, 10 is complete control), Rape (rape; Rate 250 g/ha, Postemergence): 0 | Rape plant response rating (rape; [5]): 3 | Crabgrass plant response rating (crabgrass; [1]): 3 | Crabgrass plant response rating (crabgrass; [2]): 9 | Plant response rating, Crabgrass (crabgrass; [3]): 10 | Crabgrass plant response rating (crabgrass; [4]): 7 | Plant response rating (0 to 10; 0 is no effect, 10 is complete control), Crabgrass (crabgrass; Rate 250 g/ha, Postemergence): 2 | Crabgrass plant response rating (crabgrass; [5]): 5 | Cocklebur plant response rating (cocklebur; [1]): 0 | Cocklebur plant response rating (cocklebur; [2]): 0 | Plant response rating, Cocklebur (cocklebur; [3]): 0 | Cocklebur plant response rating (cocklebur; [6]): 0 | Cocklebur plant response rating (cocklebur; [7]): 0 | Cocklebur plant response rating (cocklebur; [4]): 0 | Plant response rating (0 to 10; 0 is no effect, 10 is complete control), Cocklebur (cocklebur; Rate 250 g/ha, Postemergence): 0 | Cocklebur plant response rating (cocklebur; [5]): 1 | B. signalgrass plant response rating (surinam grass; [1]): 0 | B. signalgrass plant response rating (surinam grass; [2]): 7 | Plant response rating, B. signalgrass (surinam grass; [3]): 8 | B. signalgrass plant response rating (surinam grass; [6]): 0 | B. signalgrass plant response rating (surinam grass; Rate 125 g/ha, Postemergence, scale 0 (no effect) to 10 (complete control)): 0 | B. signalgrass plant response rating (surinam grass; [4]): 4 | Plant response rating (0 to 10; 0 is no effect, 10 is complete control), B. signalgrass (surinam grass; Rate 250 g/ha, Postemergence): 4 | B. signalgrass plant response rating (surinam grass; [5]): 8 | Plant response rating (0 to 10; 0 is no effect, 10 is complete control), Nutsedge (purple nutsedge; Rate 250 g/ha): 0 | Nutsedge plant response rating (purple nutsedge; Rate 500 g/ha, scale 0 to 10, 0 no effect, 10 complete control): 0 | Blackgrass plant response rating (blackgrass; [1]): 6 | Blackgrass plant response rating (blackgrass; [2]): 8 | Plant response rating, Blackgrass (blackgrass; [3]): 8 | Blackgrass plant response rating (blackgrass; [6]): 1 | Blackgrass plant response rating (blackgrass; [7]): 5 | Blackgrass plant response rating (blackgrass; [4]): 8 | Plant response rating (0 to 10; 0 is no effect, 10 is complete control), Blackgrass (blackgrass; Rate 250 g/ha, Postemergence): 7 | Blackgrass plant response rating (blackgrass; [5]): 7 | Corn plant response rating (corn; [1]): 0 | Corn plant response rating (corn; [2]): 3 | Plant response rating, Corn (corn; [3]): 5 | Corn plant response rating (corn; [6]): 0 | Corn plant response rating (corn; [7]): 0 | Corn plant response rating (corn; [4]): 2 | Plant response rating (0 to 10; 0 is no effect, 10 is complete control), Corn (corn; Rate 250 g/ha, Postemergence): 0 | Corn plant response rating (corn; [5]): 0 | Ducksalad plant response rating (duck salad; [8]): 0 | Ducksalad plant response rating (duck salad; [9]): 0 | Ducksalad plant response rating (duck salad; [10]): 0 | Ducksalad plant response rating (duck salad; [11]): 0 | Soybean plant response rating (soybean; [1]): 0 | Soybean plant response rating (soybean; [2]): 2 | Plant response rating, Soybean (soybean; [3]): 3 | Soybean plant response rating (soybean; [4]): 0 | Soybean plant response rating (soybean; [5]): 6 | Redroot pigweed plant response rating (pigweed; [1]): 0 | Redroot pigweed plant response rating (pigweed; [2]): 7 | Plant response rating, Redroot pigweed (pigweed; [3]): 10 | Redroot pigweed plant response rating (pigweed; [4]): 2 | Plant response rating (0 to 10; 0 is no effect, 10 is complete control), Redroot pigweed (pigweed; Rate 250 g/ha, Postemergence): 2 | Redroot pigweed plant response rating (pigweed; [5]): 3 | Sugarbeets plant response rating (sugar beet; [1]): 0 | Sugarbeets plant response rating (sugar beet; [2]): 5 | Plant response rating, Sugarbeets (sugar beet; [3]): 7 | Sugarbeets plant response rating (sugar beet; [4]): 2 | Sugarbeets plant response rating (sugar beet; [5]): 2 | Barnyardgrass plant response rating (bamyardgrass; [8]): 0 | Barnyardgrass plant response rating (bamyardgrass; [9]): 0 | Barnyardgrass plant response rating (bamyardgrass; [10]): 0 | Barnyardgrass plant response rating (bamyardgrass; [11]): 0 | Rice plant response rating (rice; [8]): 0 | Rice plant response rating (rice; [9]): 0 | Rice plant response rating (rice; [10]): 0 | Rice plant response rating (rice; [11]): 0 | Bedstraw plant response rating (bedstraw; [1]): 0 | Bedstraw plant response rating (bedstraw; [2]): 3 | Plant response rating, Bedstraw (bedstraw; [3]): 10 | Bedstraw plant response rating (bedstraw; [6]): 2 | Bedstraw plant response rating (bedstraw; [7]): 4 | Bedstraw plant response rating (bedstraw; [4]): 3 | Plant response rating (0 to 10; 0 is no effect, 10 is complete control), Bedstraw (bedstraw; Rate 250 g/ha, Postemergence): 7 | Bedstraw plant response rating (bedstraw; [5]): 8 | Wheat plant response rating (wheat; [1]): 0 | Wheat plant response rating (wheat; [2]): 4 | Plant response rating, Wheat (wheat; [3]): 7 | Wheat plant response rating (wheat; [4]): 4 | Wheat plant response rating (wheat; [5]): 6 | S. Flatsedge plant response rating (smallflower flatsedge; [8]): 0 | S. Flatsedge plant response rating (smallflower flatsedge; [9]): 0 | S. Flatsedge plant response rating (smallflower flatsedge; [10]): 0 | S. Flatsedge plant response rating (smallflower flatsedge; [11]): 0
